PubChem BioAssay AID1963827 (Molecular Pharmacology Branch, DTP, NCI, 2024)
Where “and” joins values, the source holds several entries; their conditions need not be identical. Equal entries are not always repeated.

Tested on: 994946-033-R-J1-PDC complex spheroid viability
Experiment: Anticancer human tumor 994946-033-R-J1-PDC patient-derived melanoma cell line growth inhibition [POLQ]
Details: for viability, T/C: stronger effect = lower value
Experimental: Multicellular complex tumor spheroid response to Polymerase (POL) inhibitors (novobiocin, ART-558, RP6685) in combination with a variety of drugs and investigational agents in selected tumor cell lines
The POL inhibitors (novobiocin, ART-558, and RP6685) were evaluated both individually and in combination with standard of care and investigational anticancer small molecules within a complex spheroid model of solid tumors. . Complex spheroids include a stromal component modeled by human endothelial cells (HUVEC) and fibroblasts modeled by human mesenchymal stem cells (MSCs). The concentration ranges selected for each drug and investigational agent were based upon clinically achievable concentrations if the clinical Cmax of the agent was known.
Compounds. The drugs and investigational agents: novobiocin (NSC847541), ART-558 (NSC835418), RP-6685 (NSC848927), peposertib (NSC802822), ceralasertib (NSC780249), elimusertib (NSC800525), camonsertib (NSC841442), AZD-1390 (NSC803789), olaparib (NSC753686), talazoparib (NSC767125), rucaparib (NSC756644), sotorasib (NSC818433), MRTX-1133 (NSC836407), SN-38 (NSC673596), topotecan (NSC609699), epotoside (NSC141540), doxorubicin (NSC123127), gemcitabine (NSC613327), 5-fluorouracil (NSC19893), paclitaxel (NSC125973), vemurafenib (NSC761431), MSA-2 (NSC828583), SN-011 (NSC837082), adavosertib (NSC754352), prexasertib (NSC758257), carboplatin (NSC241240) and oxaliplatin (NSC266046), were obtained from the National Cancer Institute (NCI) Developmental Therapeutics Program Chemical Repository (21). The FDA-approved anticancer drug set is available from the Developmental Therapeutics Program at https://dtp.cancer.gov/organization/dscb/obtaining/. […] The stock solutions were prepared in dimethyl sulfoxide (DMSO, Sigma-Aldrich, St. Louis, MO, cat. D2650), except for the platinum compounds which were prepared in saline (Quality Biological, Gaithersburg, MD, cat. 114-055-101), at 800-fold the tested concentration and stored at -70 degrees C prior to their use. All drugs and investigational agents were tested over a range starting from a high concentration at or near the clinical Cmax and decreasing in half-log increments. If the clinical Cmax for an agent had not been determined, the highest concentration tested was 10 microM, except for SN-38, which was tested at a high concentration of 1 microM.
Cell Culture. All cells were maintained in an incubator at 37 degrees C and 5% CO2 with 95% humidity. The PDC lines were cultured according to standard operating procedures established by the NCI PDMR (https://pdmr.cancer.gov). Table 3 of the manuscript, lists the cell lines along with the number of the three cell types plated to form the mct-spheroids and media for tumor cell growth. After thawing, all PDC lines, except 997537-175-T-J1-PDC and 415267-285-R-J2-PDC, were cultured in Matrigel-coated flasks prepared with a working solution of 1X Ham's F-12 nutrient mix, without supplementation (Thermo Fisher Scientific, cat. 11765054), 100 U/mL penicillin-streptomycin (Thermo Fisher Scientific, cat. 15140122), and 2.5% Matrigel (Corning Inc., Corning, NY, cat. 354248) for the first three passages. The two PDC lines 997537-175-T-J1-PDC and 415267-285-R-J2-PDC were cultured on uncoated flasks. The 857933-349-R-J2-PDC line was cultured in 6C/Colon 1B media containing advanced DMEM/F-12 (Thermo Fisher Scientific, cat. 12634028), 10 mM HEPES (Thermo Fisher Scientific, cat. 15630080), 1X GlutaMAX supplement (Thermo Fisher Scientific, cat. 35050061), 0.1 mg/mL primocin (InvivoGen, San Diego, CA, cat. ant-pm-2), 10% defined fetal bovine serum, heat inactivated (HyClone Laboratories Inc., Logan, UT, cat. SH30070.03HI), 50% L-WRN conditioned media (ATCC, cat. CRL-3276), 1.25 mM N-Acetyl-L-cysteine (Sigma-Aldrich, cat. A9165), 10 mM nicotinamide (Sigma-Aldrich, cat. N0636), 1X B-27 supplement (Thermo Fisher Scientific, cat. 17504044), 1X N-2 supplement (Thermo Fisher Scientific, cat. […]

[1] = curve of first compound, second compound 0.0316 µM
[2] = curve of first compound, second compound 0.1 µM
[3] = curve of first compound, second compound 0.316 µM
[4] = curve of first compound, second compound 1 µM
[5] = curve of first compound, second compound 3.16 µM
[6] = curve of first compound, second compound 10 µM
[7] = second compound 0.0316 µM, first compound 0.0316 µM
[8] = second compound 0.0316 µM, first compound 0.1 µM
[9] = second compound 0.0316 µM, first compound 0.316 µM
[10] = second compound 0.0316 µM, first compound 1 µM
[11] = second compound 0.1 µM, first compound 0.0316 µM
[12] = second compound 0.1 µM, first compound 0.1 µM
[13] = second compound 0.1 µM, first compound 0.316 µM
[14] = second compound 0.1 µM, first compound 1 µM
[15] = second compound 0.316 µM, first compound 0.0316 µM
[16] = second compound 0.316 µM, first compound 0.1 µM
[17] = second compound 0.316 µM, first compound 0.316 µM
[18] = second compound 0.316 µM, first compound 1 µM
[19] = second compound 1 µM, first compound 0.0316 µM
[20] = second compound 1 µM, first compound 0.1 µM
[21] = second compound 1 µM, first compound 0.316 µM
[22] = second compound 1 µM, first compound 1 µM
[23] = second compound 3.16 µM, first compound 0.0316 µM
[24] = second compound 3.16 µM, first compound 0.1 µM
[25] = second compound 3.16 µM, first compound 0.316 µM
[26] = second compound 3.16 µM, first compound 1 µM
[27] = second compound 10 µM, first compound 0.0316 µM
[28] = second compound 10 µM, first compound 0.1 µM
[29] = second compound 10 µM, first compound 0.316 µM
[30] = second compound 10 µM, first compound 1 µM
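Further: spheroids exposed to drugs for 7 days.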
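Wherever viability, T/C is given: 100% = DMSO vehicle treated spheroids.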

## CCc1cc2c(N3CCc4c(cc(Cn5ccnc5)cc4-c4cn(C)nc4C(F)(F)F)C3=O)cc(C)nc2c(OC)n1 + Nc1ccc(C#CCN(C(=O)Cc2ncc(C(F)(F)F)cc2C(F)(F)F)c2ccc(F)cc2)nn1
[1]
  IC50: 8.52 µM
[2]
  IC50: > 10 µM
[3]
  IC50: > 10 µM
[4]
  IC50: > 10 µM
[5]
  IC50: > 10 µM
[6]
  IC50: > 10 µM
[7]
  viability, T/C: 81.9%
[8]
  viability, T/C: 107%
[9]
  viability, T/C: 72.6%
[10]
  viability, T/C: 68.3%
Second compound 0.0316 µM, first compound 3.16 µM
  viability, T/C: 103%
Second compound 0.0316 µM, first compound 10 µM
  viability, T/C: 44%
[11]
  viability, T/C: 78.7%
[12]
  viability, T/C: 102%
[13]
  viability, T/C: 94.4%
[14]
  viability, T/C: 93%
Second compound 0.1 µM, first compound 3.16 µM
  viability, T/C: 71.2%
Second compound 0.1 µM, first compound 10 µM
  viability, T/C: 54.3%
[15]
  viability, T/C: 73%
[16]
  viability, T/C: 79.8%
[17]
  viability, T/C: 75.5%
[18]
  viability, T/C: 87%
Second compound 0.316 µM, first compound 3.16 µM
  viability, T/C: 64%
Second compound 0.316 µM, first compound 10 µM
  viability, T/C: 89.1%
[19]
  viability, T/C: 98.6%
[20]
  viability, T/C: 71.5%
[21]
  viability, T/C: 89.5%
[22]
  viability, T/C: 51.8%
Second compound 1 µM, first compound 3.16 µM
  viability, T/C: 78.5%
Second compound 1 µM, first compound 10 µM
  viability, T/C: 72.2%
[23]
  viability, T/C: 93.4%
[24]
  viability, T/C: 84.3%
[25]
  viability, T/C: 81.9%
[26]
  viability, T/C: 65.7%
Second compound 3.16 µM, first compound 3.16 µM
  viability, T/C: 86.5%
Second compound 3.16 µM, first compound 10 µM
  viability, T/C: 65.5%
[27]
  viability, T/C: 107%
[28]
  viability, T/C: 96.1%
[29]
  viability, T/C: 106%
[30]
  viability, T/C: 89.2%
Second compound 10 µM, first compound 3.16 µM
  viability, T/C: 69.9%
Second compound 10 µM, first compound 10 µM
  viability, T/C: 49.9%

## CCCS(=O)(=O)Nc1ccc(F)c(C(=O)c2c[nH]c3ncc(-c4ccc(Cl)cc4)cc23)c1F
Compound 0.0316 µM
  viability, T/C: 77.1% and 111% and 98.1%
Compound 0.1 µM
  viability, T/C: 88.1% and 101% and 79.8%
Compound 0.316 µM
  viability, T/C: 101% and 93.3% and 103%
Compound 1 µM
  viability, T/C: 123% and 91.3% and 106%
Compound 3.16 µM
  viability, T/C: 93.8% and 70.6% and 69.6%
Compound 10 µM
  viability, T/C: 15.7% and 25% and 19.7%
Curve of compound
  IC50: 6.05 µM and 5.24 µM and 4.97 µM

## CCc1c2c(nc3ccc(O)cc13)-c1cc3c(c(=O)n1C2)COC(=O)[C@]3(O)CC + Cc1cccc(N(C)C(=O)C2C(O)CCN2c2nc(C)cc(C(F)(F)F)c2C#N)c1
[1]
  IC50: < 0.00316 µM
[2]
  IC50: < 0.00316 µM
[3]
  IC50: < 0.00316 µM
[4]
  IC50: < 0.00316 µM
[5]
  IC50: < 0.00316 µM
[6]
  IC50: < 0.00316 µM
Second compound 0.0316 µM, first compound 0.00316 µM
  viability, T/C: 17.5%
Second compound 0.0316 µM, first compound 0.01 µM
  viability, T/C: 10.9%
[7]
  viability, T/C: 5%
[8]
  viability, T/C: 5.25%
[9]
  viability, T/C: 2.7%
[10]
  viability, T/C: 1.11%
Second compound 0.1 µM, first compound 0.00316 µM
  viability, T/C: 18.9%
Second compound 0.1 µM, first compound 0.01 µM
  viability, T/C: 10%
[11]
  viability, T/C: 7.4%
[12]
  viability, T/C: 5.26%
[13]
  viability, T/C: 3.12%
[14]
  viability, T/C: 0.8%
Second compound 0.316 µM, first compound 0.00316 µM
  viability, T/C: 18.6%
Second compound 0.316 µM, first compound 0.01 µM
  viability, T/C: 8.02%
[15]
  viability, T/C: 5.77%
[16]
  viability, T/C: 4.13%
[17]
  viability, T/C: 4.1%
[18]
  viability, T/C: 1.27%
Second compound 1 µM, first compound 0.00316 µM
  viability, T/C: 18.7%
Second compound 1 µM, first compound 0.01 µM
  viability, T/C: 8.88%
[19]
  viability, T/C: 5.58%
[20]
  viability, T/C: 7.75%
[21]
  viability, T/C: 3.43%
[22]
  viability, T/C: 1.3%
Second compound 3.16 µM, first compound 0.00316 µM
  viability, T/C: 26.8%
Second compound 3.16 µM, first compound 0.01 µM
  viability, T/C: 12%
[23]
  viability, T/C: 8.11%
[24]
  viability, T/C: 5.61%
[25]
  viability, T/C: 2.9%
[26]
  viability, T/C: 0.8%
Second compound 10 µM, first compound 0.00316 µM
  viability, T/C: 17.9%
Second compound 10 µM, first compound 0.01 µM
  viability, T/C: 9.1%
[27]
  viability, T/C: 5.89%
[28]
  viability, T/C: 4%
[29]
  viability, T/C: 2.6%
[30]
  viability, T/C: 0.66%
